From patent US8207188B2, “Treatment of diseases modulated by a H4 receptor agonist” (priority 2006, dated 2012)
“Also recorded” adds a separate entry of the source.

Columns and labels:
[1] = Reintroduction of causal food allergen in food allergy patients; assay type: in vivo, human; details: baseline patients treated with one drug alone
Excerpt: Allergens tested came from either […], or ALLERBIO.
The direct test with the Nutella® was strongly positive for allergy. This patient was hospitalized in two occasions for the same dramatic allergic reaction to Nutella® spread. Furthermore, the patient presented allergies to pneumoallergens.
Continuation of the above treatment for over 8 months afforded reversal of allergic and digestive symptoms due to food allergy.
The patient under study had survived two cases of anaphylactic shock due to ingestion of shrimps. […] Later the patient was able to ingest five shrimps without any local signs and no global reaction.
Baseline patients had signs of food allergies and the food allergy symptoms were not adequately managed with an H1 antagonist and cromoglycate. A group of 15 patients presenting signs of food allergies is tested with allergens such as the following: peanut, milk, tomato, potato, flour of wheat, soybean, fish, and shrimp. Allergens tested came from either […], or ALLERBIO.
All patients had history of hospitalization and reactions such as Quincke's edema and asthma crisis. Most of the causal allergens were peanut (six patients), egg (four patients) and soybean (five patients) of them (with other several positive food allergens at different degrees of reaction). […]

[2] = tested on: Mouse medullary cells C57B1/6 expressing H4R; assay: Proliferation of Colony Forming Cells (CFC) in semi-solid media; assay type: cell-based; details: 10 μM, 7 days
Procedure: Using the assay described in Example 15, above, the effect of TRQ or CB on cells expressing H4R was tested. Mouse medullary cells C57B1/6 expressing H4R (50,000 cells/Petri dish) were incubated in a semi-solid media with haematopoietic growth factors (IL-3: 10 ng/ml) for 7 days with TRQ or CB.
Using the assay described in Example 15, above, the effect of TRQ or CB on cells expressing H4R was tested. Mouse medullary cells C57B1/6 expressing H4R (50,000 cells/Petri dish) were incubated in a semi-solid media with haematopoietic growth factors (IL-3: 10 ng/ml) for 7 days with a TRQ (racemic mixture of RR and SS isomers at 1 μM and 10 μM concentration); TRQ isomer E1 (10 μM concentration); TRQ isomer E2 (10 μM concentration) and CB (10 μM concentration).

[3] = tested on: hematopoietic progenitor cells; assay: CFU of hematopoietic progenitor cells in the presence of Ara-C; assay type: cell-based
Excerpt: Ara-C is a chemotherapeutic agent that kills cancel cells (or actively dividing cells).

[4] = tested on: ckit positive hematopoietic progenitor cells; assay: ckit receptor expression on hematopoietic progenitor cells; assay type: cell-based; details: 10 μM
Excerpt: In FIG. 16 the reference to CB-5, E1-5, and E2-5 is the same as above. CKit is a receptor on the surface of hematopoetic cells. Quantifying the ckit receptor is a measure of the differentiation from the progenitor state to the hematopoetic cell state.

H4R = target: T1, H4R (Mus musculus, UniProt Q91ZY2); assay: Cell cycle status after H4R silencing with siRNA; assay type: cell-based; details: 10 μM; H4R siRNA transfected c-kit+ cells
T1 construct: endogenous in cells; host or cells: freshly sorted c-kit+ haematopoietic progenitor cells
T1 sequence (Q91ZY2 1-391): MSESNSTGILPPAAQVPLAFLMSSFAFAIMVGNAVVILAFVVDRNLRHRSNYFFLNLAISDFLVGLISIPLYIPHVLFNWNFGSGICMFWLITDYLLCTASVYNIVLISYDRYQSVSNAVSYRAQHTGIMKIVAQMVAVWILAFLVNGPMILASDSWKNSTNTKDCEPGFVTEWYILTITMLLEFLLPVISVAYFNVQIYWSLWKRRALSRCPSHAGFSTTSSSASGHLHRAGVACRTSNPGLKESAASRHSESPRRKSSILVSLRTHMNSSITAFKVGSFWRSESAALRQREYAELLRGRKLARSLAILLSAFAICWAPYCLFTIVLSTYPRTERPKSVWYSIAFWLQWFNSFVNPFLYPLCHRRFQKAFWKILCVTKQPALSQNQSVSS
Procedure: H4R silencing was performed with freshly sorted c-kit^+ cells. For transfection, 3 μl of HiPerFect reagent (Qiagen; Courtaboeuf, France) and 4 μl ([…]) of human and 8 μl (80 pmol) of murine H4R siRNA, scrambled FITC-labeled or unconjugated control siRNAs (all from Santa Cruz Biotechnology) were incubated in 50 μl x-vivo medium (Cambrex; East Rutherford, N.J.) for 20 min at room temperature. The mixture was then added to 50 μl of cell suspension at a final concentration of 10^6 cells/ml and incubated for 20 h, when transfection efficiency was verified with scrambled FITC-conjugated siRNA. Cells were then centrifuged and resuspended at a concentration of 10^5 cells/ml in StemSpan medium with growth factor cocktail. The extinction of H4R protein expression was ascertained by FACS analysis after 24 h. After 3 days of culture with or without tritoqualine (10 μM) or Clobenpropit (10 μM) cells were counted and their viability was assessed by trypan blue exclusion. The cell cycle status was assessed after an overnight incubation.

[5] = tested on: human TF1 cells that express H4R; assay: TF1 cell proliferation assay (GM-CSF promoted); assay type: cell-based; details: Homo sapiens, TF-1, 72 h; 10 μM, 3 days, three separate assays (n=3)
Procedure: Tritoqualine was tested on a cell proliferation assay using human TF1 cells that express H4R.
TF1 cell proliferation is promoted using granulocyte/macrophage colony-stimulating factor (GM-CSF). In this cell proliferation model H4R agonists inhibit cell proliferation. Clobenpropit (CB), a known H4R agonist at a dose of 10^−5M (10 μM) was used as a known cell proliferation inhibition control. […] Each experiment used 100,000 TF1 cells/mL incubated for three days with GM-CSF (10 ng/mL). After addition of TRQ in the range of 10^−5M (10 μM) to 10^−7 M (0.1 μM), and incubation for 3 days, cell proliferation was assessed and compared to that of 10 μM CB.

[6] = tested on: Mouse medullary cells C57B1/6 expressing H4R; assay: Percentage of cells at G0/G1 phase, TRQ racemate and enantiomers with and without CB (Example 21); assay type: cell-based; details: 10 μM, compared to control (GF only)
Procedure: This experiment was conducted at two concentrations for all TRQ molecules (10 μM and 1 μM) in the presence and absence of CB (10 μM).
Using the assay described in Example 15, above, the effect of TRQ or CB on cells expressing H4R was tested. Mouse medullary cells C57B1/6 expressing H4R (50,000 cells/Petri dish) were incubated in a semi-solid media with haematopoietic growth factors such as IL-3 (10 ng/ml) for 7 days with a TRQ (racemic mixture of RR and SS isomers at 1 μM and 10 μM concentration); purified TRQ isomer E1 (10 μM and 1 μM concentration); purified TRQ isomer E2 (10 μM and 1 μM concentration) and CB (10 μM concentration). […] Similar results were shown with the purified TRQ isomers. In each experiment cells were incubated in the presence of growth factors (GF, FIG. 15).

| Structure (SMILES) | management of food allergy symptoms with the single drug [1] | inhibition of proliferation of CFC ([2]; Example 16, IL-3 10 ng/ml) | inhibitory activity of cell proliferation (CFC) ([2]; Example 20) | protection of cells / cell CFU in the presence of Ara-C [3] | ckit expression [4] | activity inhibiting the cell cycle at the G0/G1 phase after H4R siRNA (H4R) | inhibition at 10 µM [5] [%] | percentage of cells at the G0/G1 phase / inhibitory activity of cell proliferation [6] |
| --- | --- | --- | --- | --- | --- | --- | --- | --- |
| CC(C)(O)c1ccccc1CC[C@@H](SCC1(CC(=O)O)CC1)c1cccc(/C=C/c2ccc3ccc(Cl)cc3n2)c1 [Montelukast®] | did not yield satisfactory management | – | – | – | – | – | – | – |
| NC(=NCc1ccc(Cl)cc1)SCCCc1cnc[nH]1 [CB, N′-[(4-chlorophenyl)methyl]-1-[3-(3H-imidazol-4-yl)propylthio]formamidine] | – | inhibits the proliferation of CFC | inhibits the proliferation of CFC | provides protection to the cells | inhibits of ckit expression | reversed | 23 | increases the percentage of cells at the G0/G1 phase; also recorded: slightly better inhibitory activity of cell proliferation compared to that of Racemic TRQ |
